pIC50: −log10 of the molar value.

The target in this assay is human ACC2 (Homo sapiens (Human), UniProt O00763). Kind of assay: ACC2 assay, spectrophotometric 384 well assay (NADH-linked, coupled lactate dehydrogenase/pyruvate kinase reaction). The following applies: hACC2 construct lacking the 128 N-terminal amino acids; 25° C., 340 nm over 15 minutes. It counts as biochemical. In short, it runs like this: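 Kinetic NADH-linked assay (pyruvate kinase/lactate dehydrogenase coupling) with baculovirus-expressed hACC2 missing its first 128 amino acids. Started with 500 μM ATP and 200 μM each NADH and acetyl-CoA; slope followed 15 min at 25 °C, pH 7.5. No-acetyl-CoA wells define 0%; IC50 by nonlinear regression.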
human ACC2, sequence (O00763 129-2458): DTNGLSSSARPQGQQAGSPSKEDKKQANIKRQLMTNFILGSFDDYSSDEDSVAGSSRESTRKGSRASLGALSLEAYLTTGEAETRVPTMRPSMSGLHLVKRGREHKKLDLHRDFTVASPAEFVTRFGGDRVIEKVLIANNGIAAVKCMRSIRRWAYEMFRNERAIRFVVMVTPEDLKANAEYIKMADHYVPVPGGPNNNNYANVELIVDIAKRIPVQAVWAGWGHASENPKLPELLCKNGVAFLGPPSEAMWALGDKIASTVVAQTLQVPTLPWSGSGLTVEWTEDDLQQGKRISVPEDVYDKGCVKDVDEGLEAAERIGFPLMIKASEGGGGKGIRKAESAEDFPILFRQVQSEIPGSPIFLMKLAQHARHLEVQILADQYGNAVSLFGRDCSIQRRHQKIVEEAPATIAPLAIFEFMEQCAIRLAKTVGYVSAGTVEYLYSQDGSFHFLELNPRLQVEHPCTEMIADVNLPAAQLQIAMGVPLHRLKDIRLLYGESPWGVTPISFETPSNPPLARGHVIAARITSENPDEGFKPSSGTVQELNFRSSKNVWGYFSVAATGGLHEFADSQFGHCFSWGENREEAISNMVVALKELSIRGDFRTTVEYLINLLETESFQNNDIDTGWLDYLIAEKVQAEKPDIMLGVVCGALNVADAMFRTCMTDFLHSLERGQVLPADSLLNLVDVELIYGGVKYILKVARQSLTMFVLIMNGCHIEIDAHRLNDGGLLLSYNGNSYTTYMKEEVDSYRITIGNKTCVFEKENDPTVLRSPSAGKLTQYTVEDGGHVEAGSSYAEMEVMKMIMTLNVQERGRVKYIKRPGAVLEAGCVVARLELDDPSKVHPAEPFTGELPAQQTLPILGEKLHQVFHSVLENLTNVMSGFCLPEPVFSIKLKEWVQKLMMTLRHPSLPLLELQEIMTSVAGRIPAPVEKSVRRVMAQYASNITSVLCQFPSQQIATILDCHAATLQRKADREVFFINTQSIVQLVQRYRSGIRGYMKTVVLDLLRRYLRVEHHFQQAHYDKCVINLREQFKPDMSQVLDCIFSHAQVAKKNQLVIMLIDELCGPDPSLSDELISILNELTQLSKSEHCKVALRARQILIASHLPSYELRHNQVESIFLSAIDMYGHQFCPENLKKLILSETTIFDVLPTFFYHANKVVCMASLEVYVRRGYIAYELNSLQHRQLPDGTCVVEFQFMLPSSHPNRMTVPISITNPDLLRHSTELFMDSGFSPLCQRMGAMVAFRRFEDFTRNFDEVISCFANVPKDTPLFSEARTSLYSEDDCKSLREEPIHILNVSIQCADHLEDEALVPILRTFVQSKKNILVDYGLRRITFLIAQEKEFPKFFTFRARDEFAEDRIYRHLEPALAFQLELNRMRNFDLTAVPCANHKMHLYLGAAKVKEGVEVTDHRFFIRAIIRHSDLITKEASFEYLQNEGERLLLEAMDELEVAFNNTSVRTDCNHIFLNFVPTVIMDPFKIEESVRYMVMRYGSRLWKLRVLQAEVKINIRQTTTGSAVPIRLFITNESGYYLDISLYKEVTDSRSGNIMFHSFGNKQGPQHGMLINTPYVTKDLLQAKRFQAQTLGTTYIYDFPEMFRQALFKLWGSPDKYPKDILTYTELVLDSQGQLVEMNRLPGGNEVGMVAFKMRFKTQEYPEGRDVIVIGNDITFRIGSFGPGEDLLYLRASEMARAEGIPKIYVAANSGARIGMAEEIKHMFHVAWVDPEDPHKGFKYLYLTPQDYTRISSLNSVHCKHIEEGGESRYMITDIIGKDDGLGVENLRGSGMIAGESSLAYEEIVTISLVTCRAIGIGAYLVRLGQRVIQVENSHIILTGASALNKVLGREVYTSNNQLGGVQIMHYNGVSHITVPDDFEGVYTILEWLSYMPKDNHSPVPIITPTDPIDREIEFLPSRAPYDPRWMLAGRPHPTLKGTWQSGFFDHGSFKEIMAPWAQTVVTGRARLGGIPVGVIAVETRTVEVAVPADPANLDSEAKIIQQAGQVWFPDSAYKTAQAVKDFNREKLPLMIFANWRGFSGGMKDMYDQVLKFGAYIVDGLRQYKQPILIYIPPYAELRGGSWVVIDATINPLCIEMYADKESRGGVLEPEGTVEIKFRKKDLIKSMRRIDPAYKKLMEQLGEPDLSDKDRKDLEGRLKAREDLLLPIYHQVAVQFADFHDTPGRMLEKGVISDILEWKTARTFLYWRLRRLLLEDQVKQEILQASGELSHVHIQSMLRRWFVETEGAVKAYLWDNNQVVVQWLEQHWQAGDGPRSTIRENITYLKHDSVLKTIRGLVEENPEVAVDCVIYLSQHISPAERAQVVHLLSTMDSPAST
What is called pIC50 is −log10 of the IC50, conventionally taken in molar units. A high value points to a small IC50. The compound `CC(=O)NC(C)Cc1ccc(C#Cc2cccc(C(=O)N3CCC(c4ccncc4)C3)c2)cc1` (centres unmarked) [Example 8.31] gave a pIC50 of 4.84.

`CC(=O)NC(C)Cc1ccc(C#Cc2cccc(C(=O)N3CCCCC3)c2)cc1` (centres unmarked) [Example 8.32]: the pIC50 was 5.68.

Compound `CC(=O)NC(C)Cc1ccc(C#Cc2cccc(C(=O)N(C)C3CCCC3)c2)cc1` (centres unmarked) [Example 8.33] gave a pIC50 of 5.70.

`CC(=O)NC(C)Cc1ccc(C#Cc2cccc(C(=O)NC3CCC3)c2)cc1` (centres unmarked) [Example 8.34] showed a negative-log IC50 (pIC50) of 5.92.

The compound `CCC(C)NC(=O)c1cccc(C#Cc2ccc(CC(C)NC(C)=O)cc2)c1` (centres unmarked) [Example 8.35] had a pIC50 of 5.62.

For the compound `CC(=O)NC(C)Cc1ccc(C#Cc2cccc(C(=O)N3CCC(C)(C)CC3)c2)cc1` (centres unmarked) [Example 8.37], the pIC50 was 5.80.

Compound `CCNC(=O)c1cccc(C#Cc2ccc(CC(C)NC(C)=O)cc2)c1` (centres unmarked) [Example 8.38] gave a pIC50 of 4.84.

In the case of `CC(=O)NC(C)Cc1ccc(C#Cc2cccc(C(=O)N(C)Cc3ccncc3)c2)cc1` (centres unmarked) [Example 8.39], the pIC50 is 4.87.

For `CC(=O)NC(C)Cc1ccc(C#Cc2cccc(C(=O)N(C)c3ccccc3)c2)cc1` (centres unmarked) [Example 8.40], the negative logarithm of the IC50 (pIC50) is 5.17.

Compound `CC(=O)NC(C)Cc1ccc(C#Cc2cccc(C(=O)NC(C)c3ccccc3)c2)cc1` (centres unmarked) [Example 8.41] had a pIC50 of 4.63.

With `CC(=O)NC(C)Cc1ccc(C#Cc2cccc(C(=O)N3Cc4ccccc4C3)c2)cc1` (centres unmarked) [Example 8.42], the pIC50 is 4.52.

The compound `CC(=O)NC(C)Cc1ccc(C#Cc2ccc(C(=O)N(C)C)cc2)cc1` (centres unmarked) [Example 8.43] gave a negative logarithm of the IC50 (pIC50) of 5.41.

Take `CNC(=O)c1ccc(C#Cc2ccc(CC(C)NC(C)=O)cc2)cc1` (centres unmarked) [Example 8.44]: the pIC50 is 4.66.

Turning to `CC(=O)NC(C)Cc1ccc(C#Cc2ccc(C(=O)N3CCCC3)cc2)cc1` (centres unmarked) [Example 8.45], the pIC50 was 5.85.

`CC(=O)NC(C)Cc1ccc(C#Cc2ccc(C(=O)N3CCN(C)CC3)cc2)cc1` (centres unmarked) [Example 8.46]: the negative-log IC50 (pIC50) was 4.95.

In the case of `CC(=O)NC(C)Cc1ccc(C#Cc2cccc(C(=O)N(C)CC(=O)OC(C)(C)C)c2)cc1` (centres unmarked) [Example 8.47], the pIC50 is 4.92.

On to `CC(=O)NC(C)Cc1ccc(C#Cc2cccc(C(=O)N3CCCC3)c2)cc1` (centres unmarked) [Example 8.48], for which the pIC50 is 5.21.

As to `CC(=O)NC(C)Cc1ccc(C#Cc2cccc(C(=O)N3CCC(C(=O)OC(C)(C)C)C3)c2)cc1` (centres unmarked) [Example 8.49], the negative-log IC50 (pIC50) is 4.66.

Compound `CC(=O)NC(C)Cc1ccc(C#Cc2cccc(C(=O)N3CCc4ccccc4C3)c2)cc1` (centres unmarked) [Example 8.51] showed a pIC50 of 4.52.

The compound `CC(=O)NC(C)Cc1ccc(C#Cc2cccc(C(=O)N3CCN(C)CC3)c2)cc1` (centres unmarked) [Example 8.54] had a pIC50 of 4.60.

`CCC(CC)Oc1ccc(C#Cc2ccc(CC(C)NC(C)=O)cc2)cc1` (centres unmarked) [Example 9.1, N-(1-(4-((4-(pentan-3yloxy)phenyl)ethynyl)phenyl)propan-2-yl)acetamide] showed a negative-log IC50 (pIC50) of 6.66.

The compound `CC(=O)NC(C)Cc1ccc(C#Cc2ccc(OC3CCCC3)cc2)cc1` (centres unmarked) [Example 9.2] had a pIC50 of 7.00.

Take `CCCCOc1ccc(C#Cc2ccc(CC(C)NC(C)=O)cc2)cc1` (centres unmarked) [Example 9.3]: the pIC50 is 7.05.

For `COCCOc1ccc(C#Cc2ccc(CC(C)NC(C)=O)cc2)cc1` (centres unmarked) [Example 9.4], the pIC50 is 6.21.

As for `CC(=O)NC(C)Cc1ccc(C#Cc2ccc(OCCN3CCCCC3)cc2)cc1` (centres unmarked) [Example 9.5], the pIC50 is 4.66.

`CC(=O)NC(C)Cc1ccc(C#Cc2ccc(OCCN3CCOCC3)cc2)cc1` (centres unmarked) [Example 9.6] showed a pIC50 of 5.03.

Consider `CC(=O)NC(C)Cc1ccc(C#Cc2ccc(OC3CCN(C)C3)cc2)cc1` (centres unmarked) [Example 9.7], for which the pIC50 was 5.72.

With `CCC(CC)Oc1cccc(C#Cc2ccc(CC(C)NC(C)=O)cc2)c1` (centres unmarked) [Example 9.8], the pIC50 is 6.09.

`CC(=O)NC(C)Cc1ccc(C#Cc2cccc(OCCN3CCCCC3)c2)cc1` (centres unmarked) [Example 9.9] had a pIC50 of 5.04.

In turn, `CC(=O)NC(C)Cc1ccc(C#Cc2ccc(OC3CNC3)cc2)cc1` (centres unmarked) [Example 9.10] had a pIC50 of 4.91.

As for `CC(=O)NC(C)Cc1ccc(C#Cc2ccc(OCC3(C)CC3)cc2)cc1` (centres unmarked) [Example 9.11], the pIC50 was 6.74.

With `CC(=O)NC(C)Cc1ccc(C#Cc2ccc(OC3CCOCC3)cc2)cc1` (centres unmarked) [Example 9.12], the pIC50 was 6.80.

The compound `COCCCOc1cccc(C#Cc2ccc(CC(C)NC(C)=O)cc2)c1` (centres unmarked) [Example 9.13] showed a pIC50 of 6.20.

`CC(=O)NC(C)Cc1ccc(C#Cc2cccc(OCc3cn(C)cn3)c2)cc1` (centres unmarked) [Example 9.14] gave a pIC50 of 5.80.

Regarding `CC(=O)NC(C)Cc1ccc(C#Cc2cccc(OCc3c[nH]cn3)c2)cc1` (centres unmarked) [Example 9.15], the negative logarithm of the IC50 (pIC50) was 5.68.

Regarding `CC(=O)NC(C)Cc1ccc(C#Cc2ccc(OCc3ccco3)cc2)cc1` (centres unmarked) [Example 9.16], the pIC50 is 6.59.

Turning to `CC(=O)NC(C)Cc1ccc(C#Cc2ccc(OCC3CCCCO3)cc2)cc1` (centres unmarked) [Example 9.17], the pIC50 was 6.21.

The compound `CCN(CC)CCOc1ccc(C#Cc2ccc(CC(C)NC(C)=O)cc2)cc1` (centres unmarked) [Example 9.18] had a pIC50 of 4.83.

As to `CCOCCOc1ccc(C#Cc2ccc(CC(C)NC(C)=O)cc2)cc1` (centres unmarked) [Example 9.19], the pIC50 is 6.55.

For `CC(=O)NC(C)Cc1ccc(C#Cc2ccc(OCC3CC3)cc2)cc1` (centres unmarked) [Example 9.20], the pIC50 is 7.10.

On to `CC(=O)NC(C)Cc1ccc(C#Cc2ccc(OCCC3CC3)cc2)cc1` (centres unmarked) [Example 9.21], for which the pIC50 was 7.22.

`CC(=O)NC(C)Cc1ccc(C#Cc2ccc(OCC(F)F)cc2)cc1` (centres unmarked) [Example 9.22] showed a pIC50 of 6.62.

`CC(=O)NC(C)Cc1ccc(C#Cc2ccc(OCCc3ccncc3)cc2)cc1` (centres unmarked) [Example 9.23] showed a negative-log IC50 (pIC50) of 6.40.

In turn, `CC(=O)NC(C)Cc1ccc(C#Cc2ccc(OCC3CC3C)cc2)cc1` (centres unmarked) [Example 9.24] showed a pIC50 of 6.70.

In the case of `CC(=O)NC(C)Cc1ccc(C#Cc2ccc(OC(C)c3ccncc3)cc2)cc1` (centres unmarked) [Example 9.25], the pIC50 is 5.60.

`CC(=O)NC(C)Cc1ccc(C#Cc2ccc(OCc3ccoc3)cc2)cc1` (centres unmarked) [Example 9.26]: the pIC50 was 6.60.

`CC(=O)NC(C)Cc1ccc(C#Cc2ccc(OCc3cc(C)on3)cc2)cc1` (centres unmarked) [Example 9.27] showed a pIC50 of 6.19.

For `CC(=O)NC(C)Cc1ccc(C#Cc2ccc(OCc3cncs3)cc2)cc1` (centres unmarked) [Example 9.28], the pIC50 is 6.16.

`CC(=O)NC(C)Cc1ccc(C#Cc2ccc(OC3CCCOC3)cc2)cc1` (centres unmarked) [Example 9.29] had a negative logarithm of the IC50 (pIC50) of 6.72.

Regarding `COCCCOc1ccc(C#Cc2ccc(CC(C)NC(C)=O)cc2)cc1` (centres unmarked) [Example 9.30], the negative logarithm of the IC50 (pIC50) was 6.64.

In turn, `CC(=O)NC(C)Cc1ccc(C#Cc2ccc(OCC3CCOCC3)cc2)cc1` (centres unmarked) [Example 9.31] showed a pIC50 of 6.26.

The compound `CC(=O)NC(C)Cc1ccc(C#Cc2ccc(OCCC(F)(F)F)cc2)cc1` (centres unmarked) [Example 9.32] showed a negative-log IC50 (pIC50) of 7.00.

The compound `CC(=O)NC(C)Cc1ccc(C#Cc2ccc(OCC3(C)COC3)cc2)cc1` (centres unmarked) [Example 9.33] had a pIC50 of 6.47.

Consider `COCCn1cncc1COc1ccc(C#Cc2ccc(CC(C)NC(C)=O)cc2)cc1` (centres unmarked) [Example 9.34], for which the pIC50 is 5.19.

Consider `CCC(COC)Oc1ccc(C#Cc2ccc(CC(C)NC(C)=O)cc2)cc1` (centres unmarked) [Example 9.35], for which the pIC50 was 6.18.

Consider `CC(=O)NC(C)Cc1ccc(C#Cc2ccc(OCCc3cn[nH]c3)cc2)cc1` (centres unmarked) [Example 9.36], for which the pIC50 is 6.38.

Source of the values: patent US8835472B2, “Compounds, pharmaceutical compositions and uses thereof” (Boehringer Ingelheim International GmbH, priority 2010, dated 2014).
